Assay: xn = mol fraction of the nth substance listed
Conditions: 101 kPa

O=S1(=O)CCCC1 + CCO
viscosity [mPa·s]
Conditions | 293.15 K | 298.15 K | 303.15 K | 308.15 K | 313.15 K | 323.15 K
x1 = 0.06211 | 1.21 | 1.103 | 1.006 | – | 0.845 | 0.714
x1 = 0.068 | – | – | 1.008 | 0.9247 | 0.8482 | –
x1 = 0.1147 | – | – | 1.063 | 0.976 | 0.8945 | –
x1 = 0.131 | 1.316 | 1.197 | 1.094 | – | 0.919 | 0.778
x1 = 0.2039 | 1.49 | 1.35 | 1.228 | – | 1.031 | 0.875
x1 = 0.2119 | – | – | 1.241 | 1.135 | 1.039 | –
x1 = 0.271 | – | – | 1.38 | 1.264 | 1.155 | –
x1 = 0.283 | 1.734 | 1.57 | 1.421 | – | 1.192 | 1.009
x1 = 0.3691 | 2.087 | 1.883 | 1.699 | – | 1.421 | 1.202
x1 = 0.374 | – | – | 1.696 | 1.546 | 1.417 | –
x1 = 0.4622 | 2.558 | 2.292 | 2.09 | – | 1.734 | 1.467
x1 = 0.4742 | – | – | 2.116 | 1.922 | 1.755 | –
x1 = 0.5688 | 3.306 | 2.96 | 2.668 | – | 2.207 | 1.857
x1 = 0.5738 | – | – | 2.691 | 2.436 | 2.216 | –
x1 = 0.6865 | 4.608 | 4.075 | 3.682 | – | 3.001 | 2.511
x1 = 0.7403 | – | – | 4.239 | 3.82 | 3.446 | –
x1 = 0.8141 | 6.959 | 6.153 | 5.503 | – | 4.423 | 3.632
x1 = 0.8574 | – | – | 6.141 | 5.47 | 4.899 | –

— the CheMixHub viscosity set
